Data taken from ChEMBL document CHEMBL5303573, “Mapping human microbiome drug metabolism by gut bacteria and their genes” (Nature, 2019).

Experiment: The drug is tested on Bifidobacterium breve strain: DSM20213 for biotransformation. The drug concentrations were measured before and after a 12-h incubation by liquid-chromatography-coupled mass spectrometry (LC–MS)
Settings: 2 µM

Compound	Bacterial Biotransformation
CCOC(=O)[C@H](CCc1ccccc1)N[C@H]1CCc2ccccc2N(CC(=O)O)C1=O [BENAZEPRIL]	Compound NOT metabolized
CCc1oc2ccccc2c1C(=O)c1cc(Br)c(O)c(Br)c1 [BENZBROMARONE]	Compound metabolized
c1ccc([C@H]2CN3CCSC3=N2)cc1 [LEVAMISOLE]	Compound metabolized
Cc1nc2n(c(=O)c1CCN1CCC(c3noc4cc(F)ccc34)CC1)CCCC2 [RISPERIDONE]	Compound metabolized

Experiment: The drug is tested on Collinsella intestinalis strain: DSM13280 for biotransformation. The drug concentrations were measured before and after a 12-h incubation by liquid-chromatography-coupled mass spectrometry (LC–MS)
Settings: 2 µM

Compound	Bacterial Biotransformation
CCOC(=O)[C@H](CCc1ccccc1)N[C@H]1CCc2ccccc2N(CC(=O)O)C1=O [BENAZEPRIL]	Compound NOT metabolized
c1ccc([C@H]2CN3CCSC3=N2)cc1 [LEVAMISOLE]	Compound NOT metabolized
Cc1nc2n(c(=O)c1CCN1CCC(c3noc4cc(F)ccc34)CC1)CCCC2 [RISPERIDONE]	Compound metabolized

Experiment: The drug is tested on Bacteroides cellulosilyticus strain: DSM14838 for biotransformation. The drug concentrations were measured before and after a 12-h incubation by liquid-chromatography-coupled mass spectrometry (LC–MS)
Settings: 2 µM

Compound	Bacterial Biotransformation
CCOC(=O)[C@H](CCc1ccccc1)N[C@H]1CCc2ccccc2N(CC(=O)O)C1=O [BENAZEPRIL]	Compound NOT metabolized
CCc1oc2ccccc2c1C(=O)c1cc(Br)c(O)c(Br)c1 [BENZBROMARONE]	Compound NOT metabolized
c1ccc([C@H]2CN3CCSC3=N2)cc1 [LEVAMISOLE]	Compound NOT metabolized
Cc1nc2n(c(=O)c1CCN1CCC(c3noc4cc(F)ccc34)CC1)CCCC2 [RISPERIDONE]	Compound NOT metabolized

Experiment: The drug is tested on Bacteroides fragilis strain: HMW610 for biotransformation. The drug concentrations were measured before and after a 12-h incubation by liquid-chromatography-coupled mass spectrometry (LC–MS)
Settings: 2 µM

Compound	Bacterial Biotransformation
CCOC(=O)[C@H](CCc1ccccc1)N[C@H]1CCc2ccccc2N(CC(=O)O)C1=O [BENAZEPRIL]	Compound metabolized
CCc1oc2ccccc2c1C(=O)c1cc(Br)c(O)c(Br)c1 [BENZBROMARONE]	Compound NOT metabolized
c1ccc([C@H]2CN3CCSC3=N2)cc1 [LEVAMISOLE]	Compound metabolized
Cc1nc2n(c(=O)c1CCN1CCC(c3noc4cc(F)ccc34)CC1)CCCC2 [RISPERIDONE]	Compound metabolized

Experiment: The drug is tested on Bacteroides vulgatus strain: ATCC8482 for biotransformation. The drug concentrations were measured before and after a 12-h incubation by liquid-chromatography-coupled mass spectrometry (LC–MS)
Settings: phocaeicola vulgatus, 2 µM

Compound	Bacterial Biotransformation
CCOC(=O)[C@H](CCc1ccccc1)N[C@H]1CCc2ccccc2N(CC(=O)O)C1=O [BENAZEPRIL]	Compound metabolized
CCc1oc2ccccc2c1C(=O)c1cc(Br)c(O)c(Br)c1 [BENZBROMARONE]	Compound NOT metabolized
c1ccc([C@H]2CN3CCSC3=N2)cc1 [LEVAMISOLE]	Compound metabolized
Cc1nc2n(c(=O)c1CCN1CCC(c3noc4cc(F)ccc34)CC1)CCCC2 [RISPERIDONE]	Compound NOT metabolized

Experiment: The drug is tested on Bacteroides sp. WH2 strain: WH2 for biotransformation. The drug concentrations were measured before and after a 12-h incubation by liquid-chromatography-coupled mass spectrometry (LC–MS)
Settings: bacteroides sp. wh2, 12 h, 2 µM

Compound	Bacterial Biotransformation
CCOC(=O)[C@H](CCc1ccccc1)N[C@H]1CCc2ccccc2N(CC(=O)O)C1=O [BENAZEPRIL]	Compound metabolized
CCc1oc2ccccc2c1C(=O)c1cc(Br)c(O)c(Br)c1 [BENZBROMARONE]	Compound NOT metabolized
c1ccc([C@H]2CN3CCSC3=N2)cc1 [LEVAMISOLE]	Compound NOT metabolized
Cc1nc2n(c(=O)c1CCN1CCC(c3noc4cc(F)ccc34)CC1)CCCC2 [RISPERIDONE]	Compound NOT metabolized

Experiment: The drug is tested on Blautia hansenii strain: DSM20583 for biotransformation. The drug concentrations were measured before and after a 12-h incubation by liquid-chromatography-coupled mass spectrometry (LC–MS)
Settings: 2 µM

Compound	Bacterial Biotransformation
CCOC(=O)[C@H](CCc1ccccc1)N[C@H]1CCc2ccccc2N(CC(=O)O)C1=O [BENAZEPRIL]	Compound NOT metabolized
CCc1oc2ccccc2c1C(=O)c1cc(Br)c(O)c(Br)c1 [BENZBROMARONE]	Compound NOT metabolized
Cc1nc2n(c(=O)c1CCN1CCC(c3noc4cc(F)ccc34)CC1)CCCC2 [RISPERIDONE]	Compound metabolized

Experiment: The drug is tested on Blautia luti strain: DSM14534 for biotransformation. The drug concentrations were measured before and after a 12-h incubation by liquid-chromatography-coupled mass spectrometry (LC–MS)
Assay type: ADME
Design: dose 2 uM, timepoint 0 vs 12 hours
Settings: 2 µM

Compound	Bacterial Biotransformation
CCc1oc2ccccc2c1C(=O)c1cc(Br)c(O)c(Br)c1 [BENZBROMARONE]	Compound NOT metabolized
c1ccc([C@H]2CN3CCSC3=N2)cc1 [LEVAMISOLE]	Compound NOT metabolized
Cc1nc2n(c(=O)c1CCN1CCC(c3noc4cc(F)ccc34)CC1)CCCC2 [RISPERIDONE]	Compound metabolized

Experiment: The drug is tested on Clostridium asparagiforme strain: DSM15981 for biotransformation. The drug concentrations were measured before and after a 12-h incubation by liquid-chromatography-coupled mass spectrometry (LC–MS)
Assay type: ADME
Design: dose 2 uM, timepoint 0 vs 12 hours
Settings: enterocloster asparagiformis, 2 µM

Compound	Bacterial Biotransformation
CCOC(=O)[C@H](CCc1ccccc1)N[C@H]1CCc2ccccc2N(CC(=O)O)C1=O [BENAZEPRIL]	Compound metabolized
CCc1oc2ccccc2c1C(=O)c1cc(Br)c(O)c(Br)c1 [BENZBROMARONE]	Compound NOT metabolized
c1ccc([C@H]2CN3CCSC3=N2)cc1 [LEVAMISOLE]	Compound metabolized
Cc1nc2n(c(=O)c1CCN1CCC(c3noc4cc(F)ccc34)CC1)CCCC2 [RISPERIDONE]	Compound metabolized

Experiment: The drug is tested on Dorea formicigenerans strain: ATCC27755 for biotransformation. The drug concentrations were measured before and after a 12-h incubation by liquid-chromatography-coupled mass spectrometry (LC–MS)
Settings: 2 µM

Compound	Bacterial Biotransformation
CCOC(=O)[C@H](CCc1ccccc1)N[C@H]1CCc2ccccc2N(CC(=O)O)C1=O [BENAZEPRIL]	Compound NOT metabolized
CCc1oc2ccccc2c1C(=O)c1cc(Br)c(O)c(Br)c1 [BENZBROMARONE]	Compound NOT metabolized
c1ccc([C@H]2CN3CCSC3=N2)cc1 [LEVAMISOLE]	Compound metabolized

Experiment: The drug is tested on Eubacterium ventriosum strain: ATCC27560 for biotransformation. The drug concentrations were measured before and after a 12-h incubation by liquid-chromatography-coupled mass spectrometry (LC–MS)
Assay type: ADME
Design: dose 2 uM, timepoint 0 vs 12 hours
Settings: 2 µM

Compound	Bacterial Biotransformation
CCOC(=O)[C@H](CCc1ccccc1)N[C@H]1CCc2ccccc2N(CC(=O)O)C1=O [BENAZEPRIL]	Compound NOT metabolized
CCc1oc2ccccc2c1C(=O)c1cc(Br)c(O)c(Br)c1 [BENZBROMARONE]	Compound NOT metabolized
c1ccc([C@H]2CN3CCSC3=N2)cc1 [LEVAMISOLE]	Compound NOT metabolized
Cc1nc2n(c(=O)c1CCN1CCC(c3noc4cc(F)ccc34)CC1)CCCC2 [RISPERIDONE]	Compound NOT metabolized

Experiment: The drug is tested on Subdoligranulum variabile strain: DSM15176 for biotransformation. The drug concentrations were measured before and after a 12-h incubation by liquid-chromatography-coupled mass spectrometry (LC–MS)
Settings: 2 µM

Compound	Bacterial Biotransformation
CCOC(=O)[C@H](CCc1ccccc1)N[C@H]1CCc2ccccc2N(CC(=O)O)C1=O [BENAZEPRIL]	Compound NOT metabolized
CCc1oc2ccccc2c1C(=O)c1cc(Br)c(O)c(Br)c1 [BENZBROMARONE]	Compound NOT metabolized
c1ccc([C@H]2CN3CCSC3=N2)cc1 [LEVAMISOLE]	Compound NOT metabolized
Cc1nc2n(c(=O)c1CCN1CCC(c3noc4cc(F)ccc34)CC1)CCCC2 [RISPERIDONE]	Compound metabolized

Experiment: The drug is tested on Escherichia coli strain: BW25113 for biotransformation. The drug concentrations were measured before and after a 12-h incubation by liquid-chromatography-coupled mass spectrometry (LC–MS)
Settings: 2 µM

Compound	Bacterial Biotransformation
CCOC(=O)[C@H](CCc1ccccc1)N[C@H]1CCc2ccccc2N(CC(=O)O)C1=O [BENAZEPRIL]	Compound NOT metabolized
CCc1oc2ccccc2c1C(=O)c1cc(Br)c(O)c(Br)c1 [BENZBROMARONE]	Compound NOT metabolized
c1ccc([C@H]2CN3CCSC3=N2)cc1 [LEVAMISOLE]	Compound metabolized
Cc1nc2n(c(=O)c1CCN1CCC(c3noc4cc(F)ccc34)CC1)CCCC2 [RISPERIDONE]	Compound NOT metabolized

Settings: bacteroides eggerthii, 12 h, 2 µM
Description: The drug is tested on Bacteroides eggerthii strain: DSM20697 for biotransformation. The drug concentrations were measured before and after a 12-h incubation by liquid-chromatography-coupled mass spectrometry (LC–MS)

Compound	Bacterial Biotransformation
CCOC(=O)[C@H](CCc1ccccc1)N[C@H]1CCc2ccccc2N(CC(=O)O)C1=O [BENAZEPRIL]	Compound metabolized
CCc1oc2ccccc2c1C(=O)c1cc(Br)c(O)c(Br)c1 [BENZBROMARONE]	Compound NOT metabolized
c1ccc([C@H]2CN3CCSC3=N2)cc1 [LEVAMISOLE]	Compound metabolized

Settings: bacteroides thetaiotaomicron, 12 h, 2 µM
Description: The drug is tested on Bacteroides thetaiotaomicron strain: VPI-5482 for biotransformation. The drug concentrations were measured before and after a 12-h incubation by liquid-chromatography-coupled mass spectrometry (LC–MS)

Compound	Bacterial Biotransformation
CCOC(=O)[C@H](CCc1ccccc1)N[C@H]1CCc2ccccc2N(CC(=O)O)C1=O [BENAZEPRIL]	Compound metabolized
CCc1oc2ccccc2c1C(=O)c1cc(Br)c(O)c(Br)c1 [BENZBROMARONE]	Compound NOT metabolized
c1ccc([C@H]2CN3CCSC3=N2)cc1 [LEVAMISOLE]	Compound metabolized
Cc1nc2n(c(=O)c1CCN1CCC(c3noc4cc(F)ccc34)CC1)CCCC2 [RISPERIDONE]	Compound NOT metabolized

Settings: bacteroides thetaiotaomicron, 12 h, 2 µM
Remark: another data set of the same source
Description: The drug is tested on Bacteroides thetaiotaomicron strain: 7330 for biotransformation. The drug concentrations were measured before and after a 12-h incubation by liquid-chromatography-coupled mass spectrometry (LC–MS)

Compound	Bacterial Biotransformation
CCOC(=O)[C@H](CCc1ccccc1)N[C@H]1CCc2ccccc2N(CC(=O)O)C1=O [BENAZEPRIL]	Compound metabolized
CCc1oc2ccccc2c1C(=O)c1cc(Br)c(O)c(Br)c1 [BENZBROMARONE]	Compound NOT metabolized
c1ccc([C@H]2CN3CCSC3=N2)cc1 [LEVAMISOLE]	Compound metabolized
Cc1nc2n(c(=O)c1CCN1CCC(c3noc4cc(F)ccc34)CC1)CCCC2 [RISPERIDONE]	Compound NOT metabolized

Settings: segatella copri, 12 h, 2 µM
Description: The drug is tested on Prevotella copri strain: DSM18205 for biotransformation. The drug concentrations were measured before and after a 12-h incubation by liquid-chromatography-coupled mass spectrometry (LC–MS)

Compound	Bacterial Biotransformation
CCOC(=O)[C@H](CCc1ccccc1)N[C@H]1CCc2ccccc2N(CC(=O)O)C1=O [BENAZEPRIL]	Compound metabolized
CCc1oc2ccccc2c1C(=O)c1cc(Br)c(O)c(Br)c1 [BENZBROMARONE]	Compound NOT metabolized
c1ccc([C@H]2CN3CCSC3=N2)cc1 [LEVAMISOLE]	Compound NOT metabolized
Cc1nc2n(c(=O)c1CCN1CCC(c3noc4cc(F)ccc34)CC1)CCCC2 [RISPERIDONE]	Compound NOT metabolized

Settings: roseburia intestinalis, 12 h, 2 µM
Description: The drug is tested on Roseburia intestinalis strain: L1-82 for biotransformation. The drug concentrations were measured before and after a 12-h incubation by liquid-chromatography-coupled mass spectrometry (LC–MS)

Compound	Bacterial Biotransformation
CCOC(=O)[C@H](CCc1ccccc1)N[C@H]1CCc2ccccc2N(CC(=O)O)C1=O [BENAZEPRIL]	Compound metabolized
CCc1oc2ccccc2c1C(=O)c1cc(Br)c(O)c(Br)c1 [BENZBROMARONE]	Compound NOT metabolized
c1ccc([C@H]2CN3CCSC3=N2)cc1 [LEVAMISOLE]	Compound NOT metabolized
Cc1nc2n(c(=O)c1CCN1CCC(c3noc4cc(F)ccc34)CC1)CCCC2 [RISPERIDONE]	Compound metabolized

Settings: akkermansia muciniphila, 12 h, 2 µM
Description: The drug is tested on Akkermansia muciniphila strain: ATCC BAA-835 for biotransformation. The drug concentrations were measured before and after a 12-h incubation by liquid-chromatography-coupled mass spectrometry (LC–MS)

Compound	Bacterial Biotransformation
CCOC(=O)[C@H](CCc1ccccc1)N[C@H]1CCc2ccccc2N(CC(=O)O)C1=O [BENAZEPRIL]	Compound NOT metabolized
CCc1oc2ccccc2c1C(=O)c1cc(Br)c(O)c(Br)c1 [BENZBROMARONE]	Compound NOT metabolized
Cc1nc2n(c(=O)c1CCN1CCC(c3noc4cc(F)ccc34)CC1)CCCC2 [RISPERIDONE]	Compound NOT metabolized
